Results taken from ChEMBL document CHEMBL1156552, “Novel ligands rationally designed for characterizing I2-imidazoline binding sites nature and functions” (J Med Chem, 2008).
Activity calls are given as the source filed them. The calls are words filed in the database; no cut-off is given here.

Experiments:
[1] = target: T1, Nischarin (Rattus norvegicus, UniProt Q4G017); test: Displacement of [3H]clonidine from Imidazoline receptor 1 in Sprague-Dawley rat kidney membrane; assay type: cell membranes
T1 sequence (Q4G017 whole entry): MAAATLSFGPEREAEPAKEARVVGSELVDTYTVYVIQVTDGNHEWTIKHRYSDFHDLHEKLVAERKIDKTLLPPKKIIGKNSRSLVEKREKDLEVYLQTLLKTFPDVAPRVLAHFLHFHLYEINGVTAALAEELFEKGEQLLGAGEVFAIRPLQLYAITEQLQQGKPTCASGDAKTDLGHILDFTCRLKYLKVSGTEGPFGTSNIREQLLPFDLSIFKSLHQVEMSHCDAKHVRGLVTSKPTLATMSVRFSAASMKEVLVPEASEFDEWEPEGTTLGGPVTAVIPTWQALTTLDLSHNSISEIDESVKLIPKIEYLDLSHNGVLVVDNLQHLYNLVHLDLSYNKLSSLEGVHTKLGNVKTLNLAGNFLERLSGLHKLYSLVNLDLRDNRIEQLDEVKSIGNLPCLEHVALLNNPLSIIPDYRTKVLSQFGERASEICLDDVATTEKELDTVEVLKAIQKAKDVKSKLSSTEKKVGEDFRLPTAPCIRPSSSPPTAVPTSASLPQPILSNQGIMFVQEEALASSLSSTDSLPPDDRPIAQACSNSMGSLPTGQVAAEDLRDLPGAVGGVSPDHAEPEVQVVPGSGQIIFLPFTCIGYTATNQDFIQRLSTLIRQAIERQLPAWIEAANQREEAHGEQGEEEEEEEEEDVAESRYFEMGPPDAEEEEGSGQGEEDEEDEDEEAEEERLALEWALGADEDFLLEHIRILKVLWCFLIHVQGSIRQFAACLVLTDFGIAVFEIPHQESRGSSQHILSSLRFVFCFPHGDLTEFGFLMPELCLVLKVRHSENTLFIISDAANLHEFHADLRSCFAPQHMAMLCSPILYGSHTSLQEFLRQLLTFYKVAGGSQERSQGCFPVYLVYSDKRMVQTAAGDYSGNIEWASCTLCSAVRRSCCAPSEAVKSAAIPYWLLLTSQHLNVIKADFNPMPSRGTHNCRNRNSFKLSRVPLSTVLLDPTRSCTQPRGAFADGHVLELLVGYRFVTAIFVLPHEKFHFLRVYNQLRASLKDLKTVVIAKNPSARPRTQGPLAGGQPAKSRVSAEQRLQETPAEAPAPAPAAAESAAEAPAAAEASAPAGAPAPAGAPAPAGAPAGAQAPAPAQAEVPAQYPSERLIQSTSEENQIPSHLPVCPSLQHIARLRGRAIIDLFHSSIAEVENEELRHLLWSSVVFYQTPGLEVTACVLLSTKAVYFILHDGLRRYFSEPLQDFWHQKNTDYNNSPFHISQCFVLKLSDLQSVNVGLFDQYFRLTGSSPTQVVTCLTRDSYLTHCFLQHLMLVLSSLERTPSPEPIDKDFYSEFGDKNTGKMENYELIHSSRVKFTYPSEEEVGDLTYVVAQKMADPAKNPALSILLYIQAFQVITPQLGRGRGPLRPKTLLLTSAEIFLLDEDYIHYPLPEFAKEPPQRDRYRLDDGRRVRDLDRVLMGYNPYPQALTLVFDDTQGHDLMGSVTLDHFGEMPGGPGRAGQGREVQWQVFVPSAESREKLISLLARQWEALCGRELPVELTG

[2] = Displacement of [3H]2-BFI from Imidazoline receptor 2 in Sprague-Dawley rat whole brain membrane
[3] = Displacement of [3H]RX821002 from Adrenergic alpha2 receptor in Sprague-Dawley rat whole brain membrane
[4] = organism: Rattus norvegicus; test: Selectivity ratio, IC50 for Imidazoline receptor 1 in Sprague-Dawley rat kidney membrane to Ki for Imidazoline receptor 2 in Sprague-Dawley rat whole brain membrane; assay type: cell membranes
[5] = organism: Rattus norvegicus; test: Selectivity ratio, IC50 for Imidazoline receptor 1 in Sprague-Dawley rat kidney membrane to Ki for alpha2 adrenoceptor in Sprague-Dawley rat whole brain membrane; assay type: cell membranes
[6] = system: Mus musculus; test: Antinociceptive activity in CD1 mouse at 20 mg/kg, sc after 30 mins by tail flick test; assay type: functional, organism-based; set-up: dose 20 mg/kg
[7] = system: Mus musculus; test: Decrease in morphine-induced analgesia in CD1 mouse at 20 mg/kg, sc after 30 mins by tail flick test relative to control; assay type: functional; set-up: scale not given: the % may be the effect or the level left; settings: route subcutaneous
[8] = system: Mus musculus; test: Antinociceptive activity in CD1 mouse at 10 mg/kg, sc after 30 mins by tail flick test; assay type: functional, organism-based; set-up: dose 10 mg/kg
[9] = system: Mus musculus; test: Increase in morphine-induced analgesia in CD1 mouse at 10 mg/kg, sc after 30 mins by tail flick test relative to control; assay type: functional; settings: route subcutaneous
[10] = system: Mus musculus; test: Reversal of decrease in morphine-induced analgesia in idazoxan pretreated CD1 mouse at 10 mg/kg, sc by tail flick assay; assay type: functional, organism-based; set-up: dose 10 mg/kg
[11] = target: T1, Nischarin; test: Displacement of [3H]clonidine from Imidazoline receptor 1 rat PC-12 cells; assay type: cell-based
[12] = Binding affinity to Imidazoline receptor 2
[13] = system: Mus musculus; test: Decrease in morphine-induced analgesia in CD1 mouse at 10 mg/kg, sc after 30 mins by tail flick test relative to control; assay type: functional; set-up: scale not given: the % may be the effect or the level left; settings: route subcutaneous
[14] = system: Mus musculus; test: Effect on morphine-induced analgesia in yohimbine pretreated CD1 mouse at 10 mg/kg, sc by tail flick test; assay type: functional, organism-based; set-up: dose 10 mg/kg
[15] = system: Mus musculus; test: Effect on morphine-induced analgesia in efaroxan pretreated CD1 mouse at 10 mg/kg, sc by tail flick test; assay type: functional, organism-based; set-up: dose 10 mg/kg

Row | IC50 [1] | Ki [2] | Ki [3] | Ratio [4] | Ratio [5] | Ki [11] | pKi [12] | Structure (SMILES) | Activity [6] | Activity [7] | Activity [8] | Activity [9] | Activity [10] | Activity [13] | Activity [14] | Activity [15]
1 | 25800 nM | 1.16 nM | 381 nM | 22300 | 328 |  |  | c1ccc2c(CCC3=NCCN3)cccc2c1 |  |  | inactive | 16% |  |  |  | 
2 |  | 158 nM | 7130 nM | 40 | 45 | 6340 nM | 6.8 | c1ccc(-c2ccccc2CCC2=NCCN2)cc1 |  |  |  |  | Active | -41% | inactive | inactive
3 | 4260 nM | 1.5 nM | 295 nM | 2840 | 197 |  |  | Clc1ccccc1CCC1=NCCN1 |  |  | inactive |  |  | -34% |  | 
4 | 7300 nM | 73.5 nM | 926 nM | 99.3 | 12.6 |  |  | Oc1ccccc1CCC1=NCCN1 |  |  | inactive |  |  | -26% |  | 
5 | 23900 nM | 254 nM | 3540 nM | 94 | 13.9 |  |  | c1c[nH]c(CCC2=NCCN2)c1 |  |  | inactive | 14% |  |  |  | 
6 |  | 2.5 nM | 1980 nM | 1480 | 794 |  | 8.6 | c1ccc(CCC2=NCCN2)cc1 [PHENYZOLINE] |  |  |  | 60% | Active |  | inactive | inactive
7 | 7360 nM | 1.68 nM | 558 nM | 4380 | 332 |  |  | Cc1ccccc1CCC1=NCCN1 |  |  | inactive |  |  | -44% |  | 

Second part, the compound before the results:

Row | Structure (SMILES) | IC50 [1] | Ki [2] | Ki [3] | Ratio [4] | Ratio [5] | Ki [11] | pKi [12] | Activity [6] | Activity [7] | Activity [8] | Activity [9] | Activity [10] | Activity [13] | Activity [14] | Activity [15]
8 | O=[N+]([O-])c1cccc(-c2ccccc2CCC2=NCCN2)c1 | 4000 nM | 252 nM | 1120 nM | 16 | 4.4 |  |  | inactive | -29% |  |  |  |  |  | 
9 | c1csc(CCC2=NCCN2)c1 | 2880 nM | 7.72 nM | 820 nM | 373 | 106 |  |  |  |  | inactive | 34% |  |  |  | 
10 | c1ccc(-c2ccsc2)c(CCC2=NCCN2)c1 | 6890 nM | 8.89 nM | 293 nM | 775 | 32.9 |  |  |  |  | inactive |  |  | -59% |  | 
11 | c1cncc(CCC2=NCCN2)c1 | 212000 nM | 414 nM | 64800 nM | 512 | 157 |  |  |  |  | inactive | 23% |  |  |  | 
12 | C1CCC(CCC2=NCCN2)CC1 | 3570 nM | 4.8 nM | 2960 nM | 744 | 617 |  |  |  |  | inactive | 30% |  |  |  | 
